Experimental data as given in PubChem BioAssay (NCI).
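Each compound was tested at five concentrations against cells in 96-well plates for 48 hours. GI50 is the concentration that inhibits growth by half. The concentration for full growth arrest is given as TGI.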

Tests used:
Experiment in all cases: inhibition of tumour cell growth, NCI panel, 48 h
CAKI-1 renal = system: CAKI-1 renal
EKVX NSCLC = system: EKVX NSCLC
HT29 colon = system: HT29 colon
KM12 colon = system: KM12 colon
MALME-3M melanoma = system: MALME-3M melanoma
MOLT-4 leukemia = system: MOLT-4 leukemia
OVCAR-3 ovarian = system: OVCAR-3 ovarian
SK-MEL-5 melanoma = system: SK-MEL-5 melanoma
SN12C renal = system: SN12C renal
U251 CNS = system: U251 CNS

Row | SMILES | TGI (CAKI-1 renal) | TGI (EKVX NSCLC) | TGI (HT29 colon) | TGI (KM12 colon) | TGI (MALME-3M melanoma) | TGI (MOLT-4 leukemia) | TGI (OVCAR-3 ovarian) | TGI (SK-MEL-5 melanoma) | TGI (SN12C renal) | TGI (U251 CNS) | GI50 (CAKI-1 renal) | GI50 (EKVX NSCLC) | GI50 (HT29 colon) | GI50 (KM12 colon) | GI50 (MALME-3M melanoma) | GI50 (MOLT-4 leukemia) | GI50 (OVCAR-3 ovarian) | GI50 (SK-MEL-5 melanoma) | GI50 (SN12C renal) | GI50 (U251 CNS)
1 | C=C(C)[C@@H]1CC[C@]2(C)CC[C@]3(C)[C@H](CC[C@@H]4[C@@]5(C)CC[C@H](OC(=O)c6ccccc6)C(C)(C)[C@@H]5CC[C@]43C)[C@@H]12 | > 100 µM | > 100 µM | > 100 µM | > 100 µM | > 100 µM | > 100 µM | > 100 µM | > 100 µM | > 100 µM | > 100 µM |  |  |  |  |  |  |  |  |  | 
2 | CC1SC(c2ccccc2)N(Nc2c3ccccc3nc3ccccc23)C1=O (centres undefined) | > 100 µM | > 100 µM | > 100 µM | > 100 µM | > 100 µM | > 100 µM | > 100 µM | > 100 µM | > 100 µM | > 100 µM |  |  |  |  |  |  |  |  |  | 
3 | COc1ccc(-c2cc(-c3ccccc3)n(C3OCC(OC(C)=O)C(OC(C)=O)C3OC(C)=O)c(=S)c2C#N)cc1 (centres undefined) | > 100 µM | > 100 µM | > 100 µM | > 100 µM | > 100 µM | > 100 µM | > 100 µM | > 100 µM | > 100 µM | > 100 µM |  |  |  |  |  |  |  |  |  | 
4 | COc1ccc(NS(=O)c2ccc(-c3ccccc3)cc2)cc1 (centres undefined) | > 100 µM | > 100 µM | > 100 µM | > 100 µM | > 100 µM | > 100 µM | > 100 µM | > 100 µM | > 100 µM | > 100 µM |  |  |  |  |  |  |  |  |  | 
5 | CN1CCN(c2ccc(-c3ccc4ncc(C#N)c(Nc5ccc(F)c(Cl)c5)c4c3)cc2)CC1 | 3.01 µM | 41.2 µM | 8.32 µM | 18.4 µM | 4.04 µM | 5.53 µM | 6.25 µM | 5.43 µM | 19.6 µM | 7.47 µM | 1.01 µM | 0.838 µM | 2.33 µM | 4.47 µM | 1.74 µM | 1.97 µM | 1.72 µM | 2.19 µM | 3.04 µM | 2.3 µM
6 | O=C(N/C(=C\c1ccccc1[N+](=O)[O-])c1nc2ccccc2[nH]1)c1ccccc1 | > 100 µM |  | > 100 µM | > 100 µM | > 100 µM | > 100 µM | > 100 µM | > 100 µM | > 100 µM | > 100 µM |  |  |  |  |  |  |  |  |  | 
7 | Nc1ccc2c(c1)C1=NNC(=O)CC1C2 (centres undefined) | > 100 µM | > 100 µM | > 100 µM | > 100 µM | > 100 µM | > 100 µM | > 31.6 µM | > 100 µM | > 100 µM | > 100 µM |  |  |  |  |  |  |  |  |  | 
